IC50 data for 32 compounds are collected here from patent US10654853B2, “Spiro-condensed pyrrolidine derivatives as deubiquitylating enzymes (DUB) inhibitors” (MISSION THERAPEUTICS LIMITED, priority 2016, dated 2020).

Broadly, the pIC50 is the negative decadic logarithm of the IC50, by convention in mol/L.

The assay has as its target Cezanne 1 (Homo sapiens (Human), UniProt Q6GQQ9). Description: Cezanne 1 biochemical IC50 assay (fluorescence polarisation, TAMRA labelled peptide linked to ubiquitin). The note with it: Cezanne 1 biochemical IC50 assay; 30 min pre-incubation, read after 2 hr at room temperature; read-out: IC50 range. The procedure: The Cezanne 1 construct was PCR amplified and cloned into a pFLAG-CMV-6c vector (Sigma-Aldrich) with an N-terminal FLAG tag. HEK293T cells were transfected with FLAG-Cezanne 1 using TransIT-LT1 transfection reagent (Mirus) according to the manufacturer's instructions. Cells were harvested 48 hours after transfection. […] The resin was washed two times with low salt buffer and one time with high salt buffer (20 mM Tris, pH 7.5, 500 mM NaCl, 0.5 mM EDTA, 5 mM beta-mercaptoethanol, protease inhibitors (complete mini, Roche) and phosphatase inhibitors (PhosSTOP mini, Roche). To elute the bound Cezanne 1, elution buffer (10 mM Tris, pH 7.5, 150 mM NaCl, 0.5 mM EDTA, 10% glycerol, 0.5% NP40, 5 mM beta-mercaptoethanol, 0.15 mg/ml 3× FLAG peptide (Sigma-Aldrich)) was added to the resin and incubated at 4° C. for 2.5 hours while rotating. The resin was centrifuged at 4000 rpm for 30 seconds, and the supernatant containing purified FLAG-Cezanne 1 was removed and stored at −80° C. […] Dilution plates were prepared at 21 times the final concentration (2100 μM for a final concentration of 100 μM) in 50% DMSO in a 96-well polypropylene V-bottom plate (Greiner #651201). […] Reactions were performed in duplicate in black 384 well plates (small volume, Greiner 784076) in a final reaction volume of 21 μl. Either 1 μl of 50% DMSO or diluted compound was added to the plate. Cezanne 1 was diluted in reaction buffer (40 mM Tris, pH 7.5, 0.005% Tween 20, 0.5 mg/ml BSA, 5 mM—beta-mercaptoethanol) to the equivalent of 0.005 μl/well and 10 μl of diluted Cezanne 1 was added to the compound. Enzyme and compound were incubated for 30 min at room temp. Reactions were initiated by the addition of 50 nM of TAMRA labelled peptide linked to ubiquitin via an iso-peptide bond as fluorescence polarisation substrate. Reactions were read immediately after addition of substrate and following a 2 hr incubation at room temperature. Readings were performed on a Pherastar Plus (BMG Labtech). λ Excitation 540 nm; λ Emission 590 nm.
(In general: Fluorescence polarisation rises when a labelled molecule tumbles more slowly, as on binding a larger partner.)

Each structure is given as a SMILES string. pIC50: −log10 of the molar value. Where only a bound is given, the exact number is not on record here.

Sequence of Cezanne 1 (Q6GQQ9 whole entry): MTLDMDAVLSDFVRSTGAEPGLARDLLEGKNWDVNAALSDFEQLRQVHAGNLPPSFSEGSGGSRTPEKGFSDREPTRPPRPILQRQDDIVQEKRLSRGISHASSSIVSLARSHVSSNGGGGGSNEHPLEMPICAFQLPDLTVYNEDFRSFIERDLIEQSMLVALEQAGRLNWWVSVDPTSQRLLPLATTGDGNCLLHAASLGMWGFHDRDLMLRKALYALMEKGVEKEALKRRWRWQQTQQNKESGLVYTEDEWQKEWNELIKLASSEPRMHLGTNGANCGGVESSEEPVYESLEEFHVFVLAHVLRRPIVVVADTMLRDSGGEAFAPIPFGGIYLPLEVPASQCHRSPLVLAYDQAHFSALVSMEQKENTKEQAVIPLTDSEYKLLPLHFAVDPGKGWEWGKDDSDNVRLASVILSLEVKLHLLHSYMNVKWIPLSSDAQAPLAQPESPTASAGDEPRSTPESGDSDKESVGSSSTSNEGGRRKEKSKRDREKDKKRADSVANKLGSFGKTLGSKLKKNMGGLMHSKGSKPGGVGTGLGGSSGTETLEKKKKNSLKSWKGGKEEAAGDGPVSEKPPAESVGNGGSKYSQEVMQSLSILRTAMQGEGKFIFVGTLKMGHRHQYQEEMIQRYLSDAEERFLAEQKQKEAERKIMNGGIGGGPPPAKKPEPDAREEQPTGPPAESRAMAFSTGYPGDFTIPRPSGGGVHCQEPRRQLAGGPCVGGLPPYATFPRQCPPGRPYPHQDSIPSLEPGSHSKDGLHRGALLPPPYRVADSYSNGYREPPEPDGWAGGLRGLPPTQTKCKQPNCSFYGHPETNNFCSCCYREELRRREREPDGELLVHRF

In the case of `CCC1CC2(CCN(C#N)C2)C(=O)N1` (centres unmarked) [Example 80, 8-Ethyl-6-oxo-2,7-diazaspiro[4.4]nonane-2-carbonitrile], the pIC50 was under 5.00.

Turning to `N#CN1CC[C@]2(Cc3cc(-c4ccccc4)ccc3NC2=O)C1` [Example 67, (R)-2′-Oxo-6′-phenyl-1′,4′-dihydro-2′H-spiro[pyrrolidine-3,3′-quinoline]-1-carbonitrile], the negative-log IC50 (pIC50) was 6.00 to 7.00.

Consider `CC(=O)Nc1ccc(-c2ccc3c(c2)CC2(CCN(C#N)C2)C(=O)N3)cc1` (centres unmarked) [Example 113, N-(4-(1-Cyano-2′-oxo-1′,4′-dihydro-2′H-spiro[pyrrolidine-3,3′-quinolin]-6′-yl)phenyl)acetamide], for which the pIC50 was 6.00 to 7.00.

On to `N#CN1CCC2(C1)Oc1ncc(-c3ccc(F)cc3)cc1NC2=O` (centres unmarked) [Example 52, 7-(4-Fluorophenyl)-2-oxo-1,2-dihydrospiro[pyrido[2,3-b][1,4]oxazine-3,3′-pyrrolidine]-1′-carbonitrile], for which the pIC50 is 6.00 to 7.00.

`Cc1n[nH]cc1-c1ccc2c(c1)NC(=O)C1(CCN(C#N)C1)C2` (centres unmarked) [Example 27, 7′-(3-Methyl-1H-pyrazol-4-yl)-2′-oxo-1′,4′-dihydro-2′H-spiro[pyrrolidine-3,3′-quinoline]-1-carbonitrile]: the pIC50 was 5.00 to 6.00.

For `CN1CCN(C(=O)c2ccc(-c3ccc4c(c3)NC(=O)C3(CCN(C#N)C3)C4)cc2)CC1` (centres unmarked) [Example 23, 7′-(4-(4-Methylpiperazine-1-carbonyl)phenyl)-2′-oxo-1′,4′-dihydro-2′H-spiro[pyrrolidine-3,3′-quinoline]-1-carbonitrile], the negative-log IC50 (pIC50) is 6.00 to 7.00.

On to `Cc1nc2cc(-c3ccc4c(c3)CC3(CCN(C#N)C3)C(=O)N4)ccc2s1` (centres unmarked) [Example 123, 6′-(2-Methylbenzo[d]thiazol-5-yl)-2′-oxo-1′,4′-dihydro-2′H-spiro[pyrrolidine-3,3′-quinoline]-1-carbonitrile], for which the pIC50 was 6.00 to 7.00.

In the case of `N#CN1CCC2(C1)OCc1ccccc1NC2=O` (centres unmarked) [Example 85, 2-Oxo-1,5-dihydro-2H-spiro[benzo[e][1,4]oxazepine-3,3′-pyrrolidine]-1′-carbonitrile], the pIC50 is 5.00 to 6.00.

In the case of `N#CN1CCC2(Cc3cc(-c4ccc(S(=O)(=O)N5CCOCC5)cc4)ccc3NC2=O)C1` (centres unmarked) [Example 116, 6′-(4-(Morpholinosulfonyl)phenyl)-2′-oxo-1′,4′-dihydro-2′H-spiro[pyrrolidine-3,3′-quinoline]-1-carbonitrile], the negative logarithm of the IC50 (pIC50) is 6.00 to 7.00.

Consider `N#CN1CCC2(Cc3cc(-c4cncnc4)ccc3NC2=O)C1` (centres unmarked) [Example 111, 2′-Oxo-6′-(pyrimidin-5-yl)-1′,4′-dihydro-2′H-spiro[pyrrolidine-3,3′-quinoline]-1-carbonitrile], for which the pIC50 was 6.00 to 7.00.

In the case of `N#CN1CCC2(Cc3cc(-c4cccc5[nH]ncc45)ccc3NC2=O)C1` (centres unmarked) [Example 134, 6′-(1H-Indazol-4-yl)-2′-oxo-1′,4′-dihydro-2′H-spiro[pyrrolidine-3,3′-quinoline]-1-carbonitrile], the negative-log IC50 (pIC50) is 6.00 to 7.00.

Take `CN1CCN(c2ccc(-c3ccc4c(c3)NC(=O)C3(CCN(C#N)C3)C4)cc2)CC1` (centres unmarked) [Example 19, 7′-(4-(4-Methylpiperazin-1-yl)phenyl)-2′-oxo-1′,4′-dihydro-2′H-spiro[pyrrolidine-3,3′-quinoline]-1-carbonitrile]: the negative-log IC50 (pIC50) is 6.00 to 7.00.

Consider `Cn1ncc2c(-c3cnc4c(c3)NC(=O)C3(CCN(C#N)C3)O4)cccc21` (centres unmarked) [Example 136, 7-(1-Methyl-1H-indazol-4-yl)-2-oxo-1,2-dihydrospiro[pyrido[2,3-b][1,4]oxazine-3,3′-pyrrolidine]-1′-carbonitrile], for which the negative-log IC50 (pIC50) was over 7.00.

Turning to `N#CN1CCC2(Cc3ccc(-c4cccc(OC(F)(F)F)c4)cc3NC2=O)C1` (centres unmarked) [Example 88, 2′-Oxo-7′-(3-(trifluoromethoxy)phenyl)-1′,4′-dihydro-2′H-spiro[pyrrolidine-3,3′-quinoline]-1-carbonitrile], the pIC50 is 5.00 to 6.00.

Turning to `N#CN1CCC2(Cc3cc(-c4cc(OC(F)(F)F)ccc4Cl)ccc3NC2=O)C1` (centres unmarked) [Example 125, 6′-(2-Chloro-5-(trifluoromethoxy)phenyl)-2′-oxo-1′,4′-dihydro-2′H-spiro[pyrrolidine-3,3′-quinoline]-1-carbonitrile], the pIC50 is 6.00 to 7.00.

As for `Cn1cc(-c2ccc3c(c2)CC2(CCN(C#N)C2)C(=O)N3)cn1` (centres unmarked) [Example 97, 6′-(1-Methyl-1H-pyrazol-4-yl)-2′-oxo-1′,4′-dihydro-2′H-spiro[pyrrolidine-3,3′-quinoline]-1-carbonitrile], the pIC50 was 6.00 to 7.00.

Take `N#CN1CC[C@@]2(C1)Oc1ncc(-c3cccc(F)c3)cc1NC2=O` [Example 69, (S)-7-(3-Fluorophenyl)-2-oxo-1,2-dihydrospiro[pyrido[2,3-b][1,4]oxazine-3,3′-pyrrolidine]-1′-carbonitrile]: the pIC50 is 6.00 to 7.00.

As to `CN(C)C(=O)c1ccc(-c2ccc3c(c2)CC2(CCN(C#N)C2)C(=O)N3)cc1` (centres unmarked) [Example 110, 4-(1-Cyano-2′-oxo-1′,4′-dihydro-2′H-spiro[pyrrolidine-3,3′-quinolin]-6′-yl)-N,N-dimethylbenzamide], the negative logarithm of the IC50 (pIC50) was 6.00 to 7.00.

As to `N#CN1CCC2(C1)Oc1ncc(-c3ccccc3)cc1NC2=O` (centres unmarked) [Example 49, 2-Oxo-7-phenyl-1,2-dihydrospiro[pyrido[2,3-b][1,4]oxazine-3,3′-pyrrolidine]-1′-carbonitrile], the negative logarithm of the IC50 (pIC50) was 6.00 to 7.00.

For the compound `N#CN1CCC2(Cc3cc(-c4ccc(F)cc4)ccc3NC2=O)C1` (centres unmarked) [Example 44, 6′-(4-Fluorophenyl)-2′-oxo-1′,4′-dihydro-2′H-spiro[pyrrolidine-3,3′-quinoline]-1-carbonitrile], the negative logarithm of the IC50 (pIC50) was 6.00 to 7.00.

Take `N#Cc1cccc(-c2cnc3c(c2)NC(=O)[C@@]2(CCN(C#N)C2)O3)c1` [Example 71, (S)-7-(3-Cyanophenyl)-2-oxo-1,2-dihydrospiro[pyrido[2,3-b][1,4]oxazine-3,3′-pyrrolidine]-1′-carbonitrile]: the pIC50 was 6.00 to 7.00.

Take `CNC(=O)c1ccc(-c2ccc3c(c2)CC2(CCN(C#N)C2)C(=O)N3)cn1` (centres unmarked) [Example 98, 5-(1-Cyano-2′-oxo-1′,4′-dihydro-2′H-spiro[pyrrolidine-3,3′-quinolin]-6′-yl)-N-methylpicolinamide]: the pIC50 was 6.00 to 7.00.

As for `N#CN1CCC2(C1)Nc1nc(C(F)(F)F)ccc1NC2=O` (centres unmarked) [Example 56, 2-Oxo-6-(trifluoromethyl)-1,4-dihydro-2H-spiro[pyrido[2,3-b]pyrazine-3,3′-pyrrolidine]-1′-carbonitrile], the negative logarithm of the IC50 (pIC50) was 5.00 to 6.00.

On to `Cc1n[nH]cc1-c1ccc2c(c1)CC1(CCN(C#N)C1)C(=O)N2` (centres unmarked) [Example 128, 6′-(3-Methyl-1H-pyrazol-4-yl)-2′-oxo-1′,4′-dihydro-2′H-spiro[pyrrolidine-3,3′-quinoline]-1-carbonitrile], for which the pIC50 is 6.00 to 7.00.

For `N#CN1CCC2(C1)NC(=O)CNC2=O` (centres unmarked) [Example 77, 7,10-Dioxo-2,6,9-triazaspiro[4.5]decane-2-carbonitrile], the negative logarithm of the IC50 (pIC50) is 5.00 to 6.00.

On to `N#CN1CCC2(CCNC2=O)C1` (centres unmarked) [Example 62, 6-Oxo-2,7-diazaspiro[4.4]nonane-2-carbonitrile], for which the pIC50 was under 5.00.

On to `CC(C)Oc1ccc(F)cc1-c1ccc2c(c1)CC1(CCN(C#N)C1)C(=O)N2` (centres unmarked) [Example 104, 6′-(5-Fluoro-2-isopropoxyphenyl)-2′-oxo-1′,4′-dihydro-2′H-spiro[pyrrolidine-3,3′-quinoline]-1-carbonitrile], for which the pIC50 was 6.00 to 7.00.

Consider `CC1CC2(CCN(C#N)C2)C(=O)N1` (single isomer, unassigned) [Example 82, 8-Methyl-6-oxo-2,7-diazaspiro[4.4]nonane-2-carbonitrile], for which the negative logarithm of the IC50 (pIC50) was under 5.00.

In the case of `N#CN1CCC2(C1)Nc1ncc(-c3ccc(F)cc3)cc1NC2=O` (centres unmarked) [Example 59, 7-(4-Fluorophenyl)-2-oxo-1,4-dihydro-2H-spiro[pyrido[2,3-b]pyrazine-3,3′-pyrrolidine]-1′-carbonitrile], the negative logarithm of the IC50 (pIC50) was 6.00 to 7.00.

With `N#CN1CCC2(Cc3cc(-c4ccccc4)ccc3NC2=O)C1` (centres unmarked) [Example 41, 2′-Oxo-6′-phenyl-1′,4′-dehydro-2′H-spiro[pyrrolidine-3,3′-quinoline]-1-carbonitrile], the pIC50 is 6.00 to 7.00.

Regarding `N#CN1CCC2(Cc3ccc(-c4ccc(Oc5ccccc5)cc4)cc3NC2=O)C1` (centres unmarked) [Example 11, 2′-Oxo-7′-(4-phenoxyphenyl)-1′,4′-dihydro-2′H-spiro[pyrrolidine-3,3′-quinoline]-1-carbonitrile], the negative-log IC50 (pIC50) was 5.00 to 6.00.

Regarding `Cc1cnn(C)c1-c1cnc2c(c1)NC(=O)C1(CCN(C#N)C1)N2` (centres unmarked) [Example 146, 7-(1,4-Dimethyl-1H-pyrazol-5-yl)-2-oxo-1,4-dihydro-2H-spiro[pyrido[2,3-b]pyrazine-3,3′-pyrrolidine]-1′-carbonitrile], the pIC50 was 6.00 to 7.00.
